Test results from article PMC8126888 (RSC Medicinal Chemistry, 2020).
Read-outs that look alike come from different tables or passages of the source.

Legend:
[1] = system: primary peritoneal mouse macrophages (PMM); assay: cells; conditions: Macrophage, read-out: PMM IC50
in vitro [2] = conditions: human, microsomes, pH 7.4, HLM CLint, human liver microsomes
in vitro [3] = conditions: mouse, microsomes, pH 7.4, MLM CLint, mouse liver microsomes
physchem = conditions: HPLC, Ascentis Express RP Amide column, pH 7.4, eLogD, experimental
in vitro [4] = conditions: human
in vitro [5] = conditions: human, HFF-1 cells
in vitro [6] = conditions: human, HepG2 cells
in vitro [7] = conditions: PAMPA
[8] = system: Leishmania infantum MHOM/MA(BE)/67/ITMAP263 intracellular amastigotes; assay: microbe, parasite or virus in culture; conditions: Macrophage, in Mus musculus
[9] = system: Trypanosoma cruzi, Tulahuen CL2, beta-galactosidase strain; assay: microbe, parasite or virus in culture; conditions: MRC5, read-out: T. cruzi Tulahuen C4 (LacZ) IC50
[10] = system: L. infantum MHOM/MA/67/ITMAP263 axenic Promastigotes; assay: microbe, parasite or virus in culture; conditions: Leishmania infantum, read-out: L. infantum MHOM/MA/67/ITMAP263 axenic Promastigotes IC50
in vitro [11] = conditions: human, THP-1 cells differentiated with PMA
in vitro [12] = conditions: human, HFF-1 cells; remark: listed apart in the source
in vitro [13] = conditions: human, HepG2 cells; remark: listed apart in the source
[14] = system: Leishmania infantum (MHOM/MA/67/ITMAP-263) intracellular amastigotes in THP-1; assay: microbe, parasite or virus in culture; conditions: THP-1, read-out: L. infantum MHOM/MA/67/ITMAP263 intracellular amastigotes THP-1 cells IC50
in vitro [15] = conditions: PAMPA; remark: listed apart in the source
[16] = read-out: L. Inf. pIC50, from L. infantum intracellular amastigote IC50 (converted)
[17] = read-out: L. infantum MHOM/MA(BE)/67/ITMAP263 intracellular amastigotes IC50, intracellular amastigotes
[18] = read-out: L. Inf. pIC50, L. infantum intracellular amastigotes (converted)

SMILES	IC50 [1]	microsomal CLint at 0.5 μM (in vitro [2])	microsomal CLint at 0.5 μM (in vitro [3])	chromatographic logD (physchem)	CC50 at 3 days (in vitro [4])	CC50 (in vitro [5])	CC50 (in vitro [6])	Papp (in vitro [7])	IC50 [8, 16]	IC50 [8, 17]	IC50 [9]	IC50 [10]	CC50 at 120 h (in vitro [11])	CC50 (in vitro [12])	CC50 (in vitro [13])	IC50 [8, 18]	IC50 [14]	Papp (in vitro [15])
COc1ccc(OC)c(S(=O)(=O)N(Cc2ccc(F)cc2)c2ccc(F)cn2)c1 [DNDI0003370085]	> 64 µM	230 µL/min/mg	1990 µL/min/mg	3.5	> 64 µM	15 µM	16.4 µM	7.1 ×10⁻⁶ cm/s	41.7 µM	41.9 µM	5.17 µM	33 µM	–	–	–	–	–	–
O=C1c2ccccc2S(=O)(=O)N(Cc2ccccc2)C1Cc1ccccc1 (centres unmarked) [DNDI0003370098]	> 64 µM	141 µL/min/mg	1060 µL/min/mg	3.6	30.8 µM	> 64 µM	> 64 µM	4.11 ×10⁻⁶ cm/s	11.7 µM	11.7 µM	9.38 µM	> 64 µM	–	–	–	–	–	–
COc1ccc(CN2CCCC2)cc1S(=O)(=O)N(Cc1ccc(F)cc1)Cc1ccc(F)cc1 [DNDI0003370114]	8 µM	62 µL/min/mg	144 µL/min/mg	4.4	6.87 µM	13.8 µM	3.25 µM	0.64 ×10⁻⁶ cm/s	2.95 µM	2.92 µM	3.27 µM	0.72 µM	–	–	–	–	–	–
COc1ccc(OC)c(S(=O)(=O)N(Cc2ncccn2)Cc2ncccn2)c1 [DNDI0003370115]	> 64 µM	17 µL/min/mg	67 µL/min/mg	1.3	> 64 µM	> 64 µM	> 64 µM	25.1 ×10⁻⁶ cm/s	> 64 µM	> 64 µM	61.4 µM	> 64 µM	–	–	–	–	–	–
COc1ccc(Cl)cc1S(=O)(=O)N(Cc1ccccc1)C(Cc1ccccc1)C(N)=O (centres unmarked) [DNDI0003370116]	32 µM	752 µL/min/mg	801 µL/min/mg	4.2	9.62 µM	37.5 µM	39 µM	5.17 ×10⁻⁶ cm/s	4.68 µM	4.73 µM	5.3 µM	30.4 µM	–	–	–	–	–	–
O=S1(=O)c2ccccc2[C@H](O)[C@@H](Cc2ccccc2)N1Cc1ccccc1 [DNDI0003578378]	> 64 µM	–	–	4.2	> 64 µM	–	–	–	–	8.88 µM	7.67 µM	–	39.7 µM	> 64 µM	63.9 µM	8.91 µM	19.5 µM	–
O=S1(=O)c2ccccc2[C@H](O)[C@H](Cc2ccccc2)N1Cc1ccccc1 [DNDI0003578379]	> 64 µM	–	–	3.9	29.7 µM	–	–	–	–	13.5 µM	6.7 µM	–	39.4 µM	27 µM	> 64 µM	13.5 µM	12.1 µM	–
COCCN(Cc1ccccc1)S(=O)(=O)c1c(OC)ccc(Cl)c1[S+](C)[O-] (centres unmarked) [DNDI0003578380]	> 64 µM	85 µL/min/mg	286 µL/min/mg	2.9	> 64 µM	–	–	–	–	26.7 µM	> 64 µM	–	> 64 µM	> 64 µM	> 64 µM	26.9 µM	> 64 µM	17.6 ×10⁻⁶ cm/s
COCCN(Cc1ccccc1)S(=O)(=O)c1c(OC)ccc(Cl)c1S(C)(=O)=O [DNDI0003578381]	> 64 µM	51 µL/min/mg	176 µL/min/mg	2.6	> 64 µM	–	–	–	–	50.8 µM	> 64 µM	–	> 64 µM	> 64 µM	> 64 µM	51.3 µM	> 64 µM	14.6 ×10⁻⁶ cm/s
COc1ccc([S+](C)[O-])cc1S(=O)(=O)N(Cc1ccccc1)Cc1ccccc1 (centres unmarked) [DNDI0003578382]	> 64 µM	125 µL/min/mg	397 µL/min/mg	3.6	21.3 µM	–	–	–	–	0.59 µM	16.9 µM	–	> 64 µM	> 64 µM	> 64 µM	0.589 µM	11.5 µM	14 ×10⁻⁶ cm/s
C[S+]([O-])c1c(Cl)ccc2c1S(=O)(=O)N(Cc1ccccc1)CCO2 (centres unmarked) [DNDI0003578383]	> 64 µM	33 µL/min/mg	423 µL/min/mg	3	> 64 µM	–	–	–	–	47.9 µM	29.3 µM	–	> 64 µM	> 64 µM	> 64 µM	47.9 µM	> 64 µM	22 ×10⁻⁶ cm/s
CCCN(Cc1ccc(F)cc1)S(=O)(=O)c1cc([S+](C)[O-])ccc1OC (centres unmarked) [DNDI0003578384]	> 64 µM	67 µL/min/mg	437 µL/min/mg	3.1	> 64 µM	–	–	–	–	11 µM	38.5 µM	–	> 64 µM	> 64 µM	> 64 µM	11 µM	> 64 µM	18.6 ×10⁻⁶ cm/s
COc1ccc(S(N)(=O)=O)cc1S(=O)(=O)N(Cc1ccccc1)Cc1ccccc1 [DNDI0003578385]	> 64 µM	58 µL/min/mg	366 µL/min/mg	3.5	13.3 µM	–	–	–	–	0.56 µM	4.66 µM	–	> 64 µM	22.2 µM	> 64 µM	0.562 µM	5.75 µM	3.76 ×10⁻⁶ cm/s
